Measurements from patent US5684151A, “1-arylsulphonyl, arylcarbonyl and 1-arylphosphonyl-3-phenyl-1,4,5,6-tetrahydropyridazines” (priority 1995, dated 1997).
Read-outs that look alike come from different tables or passages of the source.

System: mouse (MC3T3-E1) and human (TE-85) osteoblast-line cells
Assay type: cell-based
Description: Compounds of the present invention have utility to treat osteoporosis through enhancement of bone calcification rather than traditional approaches which generally involve inhibition of bone degeneration or resorption. The compounds of the present invention have been evaluated as stimulators of proliferation of osteoblast cell and chick calivaria bone organ culture which is predictive of enhancement of bone mass and bone formation in vivo.
The action of select compounds to stimulate osteoblast growth was measured in culture by estimating the rate of DNA synthesis by the rate of ^3 H-thymidine incorporation into DNA. Only cells undergoing mitosis synthesized new DNA and thus only these cells incorporated the radiolabelled DNA-specific thymidine. The stimulation of the proliferation and differentiation of bone-forming cells, osteoblasts, was a prerequisite for an increase in bone formation and bone mass. The ability of agents to increase osteoblast proliferation and differentiation can be predicted by their action on cultured osteoblast-line cells in vitro. In this test, mouse (MC3T3-E1) and human (TE-85) osteoblast-line cells (American Type Tissue Culture Collection, #CRL 1543, Rockville, Md. cloned by Sudo et al., Koriyama, Japan) were cultured in vitro and the effect of various agents were tested on osteoblast cell proliferation. Cells were harvested from large culture flasks where they were allowed to grow to near confluency using trypsin. The cells were plated into 96 well culture plates, 1600 cells in 100 μL per well in Dulbencos Modified Eagle's Medium (DMEM) with 25 mM HEPES buffer, L-glutamine (584 mg/L); D-glucose (4.5 g/L) supplemented with fetal bovine sera (10%); penicillin (100 units/mL) and streptomycin (100 mcg/mL); sodium pyruvate (10 μM final concentration). The cells were allowed to plate overnight in DMEM containing 10% fetal bovine sera at 37° C. in an atmosphere of 5% CO2/95% air. Following their placement into 96 well culture plates all the osteoblast-line cells, either the MC3T3-E1 or the TE-85 cell lines, were allowed an additional 24 hours preincubation period in media containing only 0.1% fetal bovine sera.
Twenty hours later, a 20 μL aliquot of media containing 0.4 μCi of ^3 H-thymidine was added to each culture well. The cells were then incubated an additional 4 hours. The incubation was terminated by aspirating the media and washing with HBSS (Hank's Balanced Salt Solution). The cells were then treated with 100 μL of 0.5% trypsin and 5.3 mM EDTA for 30 minutes at room temperature. The cells were then aspirated onto glass fiber filter and washed with water. The radioactivity on the filters was quantified by liquid scintillation spectroscopy. The rate of ^3 H-thymidine incorporation into DNA was then utilized as an index of cell proliferation. The results are shown in Table 13 expressed as % times control where the control is 100%. […]

SMILES | Osteoblast Cell Proliferation, 3H-thymidine incorporation vs control (100%) (10^-6) [%] | Osteoblast Cell Proliferation, 3H-thymidine incorporation vs control (100%) (10^-7) [%] | Osteoblast Cell Proliferation, 3H-thymidine incorporation vs control (100%) (10^-8) [%] | Osteoblast Cell Proliferation, 3H-thymidine incorporation vs control (100%) (10^-9) [%] | Osteoblast Cell Proliferation, 3H-thymidine incorporation vs control (100%) (10^-10) [%]
O=S(=O)(/C=C/c1ccccc1)N1CCCC(c2ccc3c(c2)CCCC3)=N1 [Compound 176] | 59 | 94 | 109 | 113 | 109
S=C(c1cc(Cl)cc(Cl)c1)N1CCCC(c2ccc(Cl)c(Cl)c2)=N1 [Compound 244] |  | 119 | 134 | 129 | 144
O=S(=O)(c1cccc2ccccc12)N1CCCC(c2ccc(Cl)cc2)=N1 [Compound 44] | 86 | 107 | 105 | 95 | 87
S=C(c1ccc(Cl)c(Cl)c1)N1CCCC(c2ccc(Cl)c(Cl)c2)=N1 [Compound 243] |  | 118 | 92 | 96 | 89
CC1CC(c2ccccc2)=NN(C(=O)c2ccc(F)c(F)c2)C1 (racemic) [Compound 235, (R,S)-1-(3,4-difluorobenzoyl)-5-methyl-3-phenyl-1,4,5,6-tetrahydropyridazine] |  | 86 | 87 | 92 | 88
COP(=O)(c1ccccc1)N1CCCC(c2ccc(Br)cc2)=N1 (stereo not shown) [Compound 260] | 100 | 115 | 105 | 99 | 90
O=C(c1ccc(F)c(Br)c1)N1CCCC(c2ccccc2)=N1 [Compound 229] |  | 104 | 86 | 99 | 114
CC1CC(c2ccccc2)=NN(C(=S)c2ccc(Cl)c(Cl)c2)C1 (racemic) [Compound 248, (R,S)-1-(3,4-dichlorothiobenzoyl)-5-methyl-3-phenyl-1,4,5,6-tetrahydropyridazine] |  | 142 | 130 | 140 | 149
CS(=O)(=O)c1ccc(S(=O)(=O)N2CCCC(c3ccc(Cl)c(Cl)c3)=N2)cc1 [Compound 275, 3-(3,4-Dichlorophenyl)-1-(4-methylsulfonylbenzenesulfonyl)-1,4,5,6-tetrahydropyridazine] |  | 145 | 153 | 128 | 136
CCCCc1ccc(C2=NN(P(=O)(OC)c3ccccc3)CCC2)cc1 (stereo not shown) [Compound 251] | 109 | 104 | 111 | 91 | 111
Cc1ccc(/C=C/S(=O)(=O)N2CCCC(c3ccc(Cl)c(Cl)c3)=N2)cc1 [Compound 169] | 128 | 131 | 133 | 134 | 195
CCCCc1ccc(C2=NN(C(=O)c3ccc(Cl)c(Cl)c3)CCC2)cc1 [Compound 231] |  | 115 | 103 | 145 | 133
CC1CC(c2ccccc2)=NN(C(=O)c2ccc(Cl)c(Cl)c2)C1 (racemic) [Compound 233, (R,S)-1-(3,4-dichlorobenzoyl)-5-methyl-3-phenyl-1,4,5,6-tetrahydropyridazine] |  | 130 | 132 | 130 | 138
CCCCCCc1ccc(S(=O)(=O)N2CCCC(c3ccc(Cl)c(Cl)c3)=N2)cc1 [Compound 121] | 120 | 123 | 122 | 120 | 181
Nc1c(Br)cc(C2=NN(C(=O)c3ccc(Cl)c(Cl)c3)CCC2)cc1Br [Compound 265, (3-4-Amino-3,5-dibromophenyl)-1-(3,4-dichlorobenzoyl)-1,4,5,6-tetrahydropyridazine] |  | 110 | 112 | 112 | 115
O=S(=O)(/C=C/c1ccc2ccccc2c1)N1CCCC(c2ccc(Cl)c(Cl)c2)=N1 [Compound 171] | 72 | 110 | 121 | 118 | 129
O=C(c1cc(Cl)cc(Cl)c1)N1CCCC(c2ccccc2)=N1 [Compound 232] |  | 110 | 115 | 115 | 121
O=S(=O)(/C=C/c1ccc(-c2ccccc2)cc1)N1CCCC(c2ccc(Cl)c(Cl)c2)=N1 [Compound 168] | 67 | 82 | 82 | 76 | 109
CC1(C)CC(c2ccccc2)=NN(C(=O)c2ccc(Cl)c(Cl)c2)C1 [Compound 234] |  | 95 | 84 | 84 | 111
Fc1ccc(C(=S)N2CCCC(c3ccc(Cl)c(Cl)c3)=N2)cc1F [Compound 236, 3-(3,4-Dichlorophenyl)-1-(3,4-difluorothiobenzoyl)-1,4,5,6-tetrahydropyridazine] |  | 109 | 102 | 106 | 115
S=C(c1ccc(Cl)c(Cl)c1)N1CCCC(c2ccccc2)=N1 [Compound 237, 1-(3,4-dichlorothiobenzoyl)-3-phenyl-1,4,5,6-tetrahydropyridazine] |  | 113 | 113 | 110 | 119
CCOP(=O)(c1ccccc1)N1CCCC(c2ccc(F)cc2)=N1 (stereo not shown) [Compound 259] | 116 | 96 | 102 | 121 | 106
